Measurements published in patent US9951058B2, “Compound, pharmaceutically acceptable salt or optical isomer thereof, method for preparing the same, and pharmaceutical composition for prevention or treatment of viral diseases containing same as active ingredient” (Korea Research Institute of Chemical Technology, priority 2012, dated 2018).
Values after ≈ are worked out from the molar mass of the structure shown.

How the values were obtained:
[1] = tested on: HRV 14; assay: Cytopathic effect (CPE) inhibition assay; assay type: cell-based, human rhinovirus; settings: Human rhinovirus sp., HeLa, 72 h, host cell HeLa, 3 days, MEM/2% FBS, MTT assay; read-out: EC50 HRV 14
[2] = tested on: HRV 21; assay: Cytopathic effect (CPE) inhibition assay; assay type: cell-based, human rhinovirus; settings: Human rhinovirus sp., 72 h; host cell HeLa, 3 days, MEM/2% FBS, MTT assay; read-out: EC50 HRV 21
[3] = tested on: HRV 71; assay: Cytopathic effect (CPE) inhibition assay; assay type: cell-based, human rhinovirus; settings: Human rhinovirus sp., 72 h; host cell HeLa, 3 days, MEM/2% FBS, MTT assay; read-out: EC50 HRV 71
[4] = tested on: coxsackievirus B1 (Cox B1); assay: Multicycle cytopathic effect (CPE) reduction assay; assay type: cell-based; settings: Enterovirus B, B1, 72 h, read-out: EC50 CoxB1
[5] = tested on: coxsackievirus B3 (Cox B3); assay: Multicycle cytopathic effect (CPE) reduction assay; assay type: cell-based; settings: Enterovirus B, B3, 72 h, read-out: EC50 CoxB3
[6] = tested on: poliovirus 3 (PV3); assay: microbe, parasite or virus in culture; assay type: cell-based; settings: Enterovirus C, 72 h, read-out: EC50 PV3
[7] = in vitro; settings: human
[8] = Cytotoxicity (CC50) in multicycle CPE reduction assay, MTS; settings: human

Row | SMILES | EC50 [1] [µg/mL] | EC50 [2] [µg/mL] | EC50 [3] [µg/mL] | EC50 [4] [µg/mL] | EC50 [5] [µg/mL] | EC50 [6] [µg/mL] | CC50 [7] [µg/mL] | CC50 at 3 days [8] [µg/mL]
1 | CC(C)c1ccc2c(c1)OC1(O)c3ccccc3C(=O)C21NC(=O)C(=O)c1c[nH]c2ccccc12 (stereo not shown) [Example 1, N-(4b-hydroxy-7-isopropyl-10-oxo-9b, 10-dihydro-4bH-benzo[d]indeno[1,2-b]furan-9b-yl)-2-(1H-indol-3-yl)-2-oxo acetamide] | < 1 | > 7.91 | > 7.91 | 0.017 (≈ 0.0364 µM) | 0.061 (≈ 0.131 µM) | 1.1 (≈ 2.36 µM) | 7.91 (≈ 17 µM) | 8.57 (≈ 18.4 µM)
2 | CC(C)c1ccc2c(c1)OC1(O)c3ccccc3C(=O)C21NC(=O)C(=O)c1cccs1 (stereo not shown) [Example 2, N-(4b-hydroxy-7-isopropyl-10-oxo-9b, 10-dihydro-4bH-indeno[1,2-b]benzofuran-9b-yl)-2-oxo-2-(thiopen-2-yl)acetamide] | < 0.1 | > 8.57 | > 8.57 | < 0.01 | < 0.01 | < 1 | 8.57 (≈ 19.8 µM) | 9.02 (≈ 20.8 µM)
3 | CC(C)c1ccc2c(c1)OC1(O)c3ccccc3C(=O)C21NC(=O)C(=O)Cc1ccccc1[N+](=O)[O-] (stereo not shown) [Example 3, N-(4b-hydroxy-7-isopropyl-10-oxo-9b, 10-dihydro-4bH-indeno[1,2-b]benzofuran-9b-yl)-3-(2-nitrophenyl)-2-oxo propanamide] | > 1.76 | > 1.76 | > 1.76 | 0.013 (≈ 0.0267 µM) | 0.015 (≈ 0.0308 µM) | < 1 | 1.76 (≈ 3.62 µM) | 2.38 (≈ 4.89 µM)
4 | CC(=O)C(=O)NC12C(=O)c3ccccc3C1(O)Oc1cc(C(C)C)ccc12 (stereo not shown) [Example 4, N-(4b-hydroxy-7-isopropyl-10-oxo-9b, 10-dihydro-4bH-indeno[1,2-b]benzofuran-9b-yl)-2-oxo propanamide] | < 0.1 | > 9.02 | > 9.02 | < 0.01 | < 0.01 | < 1 | 9.02 (≈ 24.7 µM) | > 10
5 | CCCC(=O)C(=O)NC12C(=O)c3ccccc3C1(O)Oc1cc(C(C)C)ccc12 (stereo not shown) [Example 5, N-(4b-hydroxy-7-isopropyl-10-oxo-9b, 10-dihydro-4bH-indeno[1,2-b]benzofuran-9b-yl)-2-oxo pentanamide] | < 0.1 | > 8.49 | > 8.49 | < 0.01 | < 0.01 | < 0.1 | 8.49 (≈ 21.6 µM) | > 10
6 | CCCCCCC(=O)C(=O)NC12C(=O)c3ccccc3C1(O)Oc1cc(C(C)C)ccc12 (stereo not shown) [Example 6, N-(4b-hydroxy-7-isopropyl-10-oxo-9b, 10-dihydro-4bH-indeno[1,2-b]benzofuran-9b-yl)-2-oxo octanamide] | < 1 | > 8.57 | > 8.57 | 0.013 (≈ 0.0298 µM) | 0.015 (≈ 0.0344 µM) | 1.23 (≈ 2.82 µM) | 8.57 (≈ 19.7 µM) | 8.57 (≈ 19.7 µM)
7 | CC(C)c1ccc2c(c1)OC1(O)c3ccccc3C(=O)C21NC(=O)C(=O)c1ccco1 (stereo not shown) [Example 7, 2-(furan-2-yl)-N-(4b-hydroxy-7-isopropyl-10-oxo-9b, 10-dihydro-4bH-indeno[1,2-b]benzofuran-9b-yl)-2-oxo acetamide] | < 0.1 | > 10 | > 10 | < 0.01 | < 0.01 | < 1 | > 10 | > 10
8 | CC(C)c1ccc2c(c1)OC1(O)c3c(cccc3[N+](=O)[O-])C(=O)C21NC(=O)C(=O)c1c[nH]c2ccccc12 (stereo not shown) [Example 8, N-(4b-hydroxy-7-isopropyl-4-nitro-10-oxo-9b, 10-dihydro-4bH-indeno[1,2-b]benzofuran-9b-yl)-2-(1H-indol-3-yl)-2-oxo acetamide] | 2.31 (≈ 4.52 µM) | > 10 | > 10 | 0.56 (≈ 1.09 µM) | 1.82 (≈ 3.56 µM) | 9.8 (≈ 19.2 µM) | > 10 | > 10
9 | CC(C)c1ccc2c(c1)OC1(O)c3ccccc3C(=O)C21NC(=O)C(=O)Cc1ccc(O)cc1 (stereo not shown) [Example 9, N-(4b-hydroxy-7-isopropyl-10-oxo-9b, 10-dihydro-4bH-indeno[1,2-b]benzofuran-9b-yl)-3-(4-hydroxyphenyl)-2-oxo propanamide] | > 3.76 | > 3.76 | > 3.76 | 0.013 (≈ 0.0284 µM) | 0.015 (≈ 0.0328 µM) | < 1 | 3.76 (≈ 8.22 µM) | 9.21 (≈ 20.1 µM)
10 | CC(C)c1ccc2c(c1)OC1(O)c3cccc(N)c3C(=O)C21NC(=O)C(=O)c1c[nH]c2ccccc12 (stereo not shown) [Example 10, N-(1-amino-4b-hydroxy-7-isopropyl-10-oxo-9b, 10-dihydro-4bH-indeno[1,2-b]benzofuran-9b-yl)-2-(1H-indo1-3-yl)-2-oxo acetamide] | < 0.1 | > 4.89 | > 4.89 | < 0.01 | 0.014 (≈ 0.0291 µM) | < 0.1 | 4.89 (≈ 10.2 µM) | 8.33 (≈ 17.3 µM)
11 | CC(C)c1ccc2c(c1)OC1(O)c3cccc(N)c3C(=O)C21NC(=O)C(=O)c1ccccc1 (stereo not shown) [Example 11, N-(1-amino-4b-hydroxy-7-isopropyl-10-oxo-9b, 10-dihydro-4bH-indeno[1,2-b]benzofuran-9b-yl)-2-oxo-2-phenyl acetamide] | < 0.1 | 3.13 (≈ 7.07 µM) | > 7.82 | < 0.01 | < 0.01 | < 0.1 | 7.82 (≈ 17.7 µM) | 8.72 (≈ 19.7 µM)
12 | Cc1cc2c(cc1C)C1(NC(=O)C(=O)c3ccccc3)C(=O)c3ccccc3C1(O)O2 (stereo not shown) [Example 12, N-(4b-hydroxy-7,8-dimethyl-10-oxo-9b, 10-dihydro-4bH-indeno[1,2-b]benzofuran-9b-yl)-2-oxo-2-phenyl acetamide] | 2.08 (≈ 5.03 µM) | > 10 | > 10 | 0.015 (≈ 0.0363 µM) | 0.064 (≈ 0.155 µM) | 9.8 (≈ 23.7 µM) | > 10 | > 10
13 | Cc1cc2c(cc1C)C1(NC(=O)C(=O)c3c[nH]c4ccccc34)C(=O)c3ccccc3C1(O)O2 (stereo not shown) [Example 13, N-(4b-hydroxy-7,8-dimethyl-10-oxo-9b, 10-dihydro-9bH-indeno[1,2-b]benzofuran-9b-yl)-(1H-indo1-3-yl)-2-oxo acetamide] | 1.85 (≈ 4.09 µM) | > 8.41 | > 8.41 | 0.061 (≈ 0.135 µM) | 0.13 (≈ 0.287 µM) | 1.98 (≈ 4.38 µM) | 8.41 (≈ 18.6 µM) | 8.31 (≈ 18.4 µM)
14 | CC(=O)C(=O)NC12C(=O)c3ccccc3C1(O)Oc1cc(C)c(C)cc12 (stereo not shown) [Example 14, N-(4b-hydroxy-7,8-dimethyl-10-oxo-9b, 10-dihydro-4bH-indeno[1,2-b]benzofuran-9b-yl)-2-oxo propanamide] | 1.82 (≈ 5.18 µM) | > 8.87 | > 8.87 | 0.015 (≈ 0.0427 µM) | 0.067 (≈ 0.191 µM) | > 8.57 | 8.87 (≈ 25.2 µM) | 8.57 (≈ 24.4 µM)
15 | CC(C)c1ccc2c(c1)OC1(O)c3ccccc3C(=O)C21NC(=O)C(=O)c1ccccc1 (stereo not shown) [Example 15, N-(4b-hydroxy-7-isopropyl-10-oxo-9b, 10-dihydro-4bH-indeno[1,2-b]benzofuran-9b-yl)-2-oxo-2-phenyl acetamide] | < 1 | > 8.72 | > 8.72 | < 0.01 | < 0.01 | < 1 | 8.72 (≈ 20.4 µM) | 8.8 (≈ 20.6 µM)
16 | CC(C)c1ccc2c(c1)OC1(O)c3c(cccc3[N+](=O)[O-])C(=O)C21NC(=O)C(=O)c1ccccc1 (stereo not shown) [Example 16, N-(4b-hydroxy-7-isopropyl-4-nitro-10-oxo-9b, 10-dihydro-4bH-indeno[1,2-b]benzofuran-9b-yl)-2-oxo-2-phenyl acetamide] | 1.77 (≈ 3.75 µM) | > 10 | > 10 | 0.078 (≈ 0.165 µM) | 0.33 (≈ 0.698 µM) | 2.13 (≈ 4.51 µM) | > 10 | > 10
17 | CSCCC(=O)C(=O)NC12C(=O)c3ccccc3C1(O)Oc1cc(C(C)C)ccc12 (stereo not shown) [Example 17, N-(4b-hydroxy-7-isopropyl-10-oxo-9b, 10-dihydro-4bH-indeno[1,2-b]benzofuran-9b-yl)-4-(methylthio)-2-oxo butanamide] | 6.99 (≈ 16.4 µM) | > 10 | > 10 | 0.033 (≈ 0.0776 µM) | 0.067 (≈ 0.157 µM) | 2.61 (≈ 6.13 µM) | > 10 | > 10
18 | CC(C)c1ccc2c(c1)OC1(O)c3ccccc3C(=O)C21NC(=O)CCC(=O)N(C)C (stereo not shown) [Example 44, N1-(4b-hydroxy-7-isopropyl-10-oxo-4b, 10-dihydro-9bH-indeno[1,2-b]benzofuran-9b-yl)-N4, N4-dimethyl succinamide] |  |  |  | < 0.1 | < 0.1 | < 10 |  | > 10
19 | CC(C)NC(=O)CCC(=O)NC12C(=O)c3ccccc3C1(O)Oc1cc(C(C)C)ccc12 (stereo not shown) [Example 45, N1-(4b-hydroxy-7-isopropyl-10-oxo-4b, 10-dihydro-9bH-indeno[1,2-b]benzofuran-9b-yl)-N4-isopropyl succinamide] |  |  |  | < 0.1 | < 0.1 | < 10 | > 10 | > 10
